The results in this text go back to patent US7524869B2, “Taxanes having a C10 ester substituent” (Florida State University Research Foundation, Inc., priority 2000, dated 2009).

The assay deals with HCT116. The assay can be described thus: In vitro cytotoxicity measured by the cell colony formation assay. Type of assay: cell-based. The following applies: HCT116 cells, 72 h drug incubation, colonies counted after 7 days; ID50 = drug concentration producing 50% inhibition of colony formation; read-out: IN VITRO ID 50 (nm) HCT116. Here is the method:
In Vitro Cytotoxicity Measured by the Cell Colony Formation Assay
Four hundred cells (HCT116) were plated in 60 mm Petri dishes containing 2.7 mL of medium (modified McCoy's 5a medium containing 10% fetal bovine serum and 100 units/mL penicillin and 100 µg/mL streptomycin). The cells were incubated in a CO2 incubator at 37° C. for 5 h for attachment to the bottom of Petri dishes. The compounds identified in Example 2 were made up fresh in medium at ten times the final concentration, and then 0.3 mL of this stock solution was added to the 2.7 mL of medium in the dish. The cells were then incubated with drugs for 72 h at 37° C. At the end of incubation the drug-containing media were decanted, the dishes were rinsed with 4 mL of Hank's Balance Salt Solution (HBSS), 5 mL of fresh medium was added, and the dishes were returned to the incubator for colony formation. The cell colonies were counted using a colony counter after incubation for 7 days.

Regarding `CC(=O)O[C@@]12CO[C@@H]1C[C@H](O)[C@@]1(C)C(=O)[C@H](OC(=O)C3CC3)C3=C(C)[C@@H](OC(=O)[C@H](O)[C@@H](NC(=O)OC(C)(C)C)c4ccc([N+](=O)[O-])cc4)C[C@@](O)([C@@H](OC(=O)c4ccccc4)C12)C3(C)C` (stereo partly shown) [Compound 0879], the IC50 was less than 1 nM. The figure for `CC(=O)OC12COC1CC(O)C1(C)C(=O)C(OC(=O)c3cccs3)C3=C(C)C(OC(=O)C(O)C(NC(=O)OC(C)(C)C)c4ccoc4)CC(O)(C(OC(=O)c4ccccc4)C21)C3(C)C` (stereo not shown) [Compound 1923] is less than 1 nM. Next, `CC(=O)O[C@@]12CO[C@@H]1C[C@H](O)[C@@]1(C)C(=O)[C@H](OC(=O)C3CC3)C3=C(C)[C@@H](OC(=O)[C@H](O)[C@@H](NC(=O)OC(C)(C)C)c4ccccn4)C[C@@](O)([C@@H](OC(=O)c4ccccc4)C12)C3(C)C` (stereo partly shown) [Compound 2802]: less than 1 nM. `CCOC(=O)N[C@@H](c1cccs1)[C@@H](O)C(=O)O[C@H]1C[C@@]2(O)[C@@H](OC(=O)c3ccccc3)C3[C@](C)(C(=O)[C@H](OC(=O)C4CC4)C(=C1C)C2(C)C)[C@@H](O)C[C@H]1OC[C@@]31OC(C)=O` (stereo partly shown) [Compound 4051]: the IC50 is less than 1 nM. For the compound `C/C=C/C(=O)O[C@H]1C(=O)[C@@]2(C)C([C@H](OC(=O)c3ccccc3)[C@]3(O)C[C@H](OC(=O)[C@H](O)[C@@H](NC(=O)OC(C)(C)C)C4CCC4)C(C)=C1C3(C)C)[C@]1(OC(C)=O)CO[C@@H]1C[C@@H]2O` (stereo partly shown) [Compound 2424], the IC50 was less than 10 nM. Next, `CC(=O)OC12COC1CC(O)C1(C)C(=O)C(OC(=O)c3ccco3)C3=C(C)C(OC(=O)C(O)C(NC(=O)OC(C)(C)C)c4ccco4)CC(O)(C(OC(=O)c4ccccc4)C21)C3(C)C` (stereo not shown) [Compound 2142]: less than 1 nM; `CCC(=O)O[C@H]1C(=O)[C@@]2(C)C([C@H](OC(=O)c3ccccc3)[C@]3(O)C[C@H](OC(=O)[C@H](O)[C@@H](NC(=O)OC(C)(C)C)C4CC4)C(C)=C1C3(C)C)[C@]1(OC(C)=O)CO[C@@H]1C[C@@H]2O` (stereo partly shown) [Compound 0578]: less than 1 nM.

Turning to `CC(=O)OC12COC1CC(O)C1(C)C(=O)C(OC(=O)c3cccs3)C3=C(C)C(OC(=O)C(O)C(NC(=O)OC(C)(C)C)C4CCC4)CC(O)(C(OC(=O)c4ccccc4)C21)C3(C)C` (stereo not shown) [Compound 1970], the IC50 was less than 10 nM.

As for `CC(=O)O[C@@]12CO[C@@H]1C[C@H](O)[C@@]1(C)C(=O)[C@H](OC(=O)C3CC3)C3=C(C)[C@@H](OC(=O)[C@H](O)[C@@H](NC(=O)c4ccccc4)c4ccncc4)C[C@@](O)([C@@H](OC(=O)c4ccccc4)C12)C3(C)C` (stereo partly shown) [Compound 2855], the IC50 was less than 1 nM. Next, `CC(=O)OC12COC1CC(O)C1(C)C(=O)C(OC(=O)C(C)C)C3=C(C)C(OC(=O)C(O)C(C=C(C)C)NC(=O)OC(C)(C)C)CC(O)(C(OC(=O)c4ccccc4)C21)C3(C)C` (stereo not shown) [Compound 2226]: less than 1 nM; `CC(=O)O[C@@]12CO[C@@H]1C[C@H](O)[C@@]1(C)C(=O)[C@H](OC(=O)C3CC3)C3=C(C)[C@@H](OC(=O)[C@H](O)[C@@H](NC(=O)c4ccccc4)c4cccs4)C[C@@](O)([C@@H](OC(=O)c4ccccc4)C12)C3(C)C` (stereo partly shown) [Compound 0919]: less than 1 nM. The figure for `CCC(=O)O[C@H]1C(=O)[C@@]2(C)C([C@H](OC(=O)c3ccccc3)[C@]3(O)C[C@H](OC(=O)[C@H](O)[C@@H](NC(=O)OCC(C)C)c4cccs4)C(C)=C1C3(C)C)[C@]1(OC(C)=O)CO[C@@H]1C[C@@H]2O` (stereo partly shown) [Compound 3163] is less than 1 nM; for `CC(=O)O[C@@]12CO[C@@H]1C[C@H](O)[C@@]1(C)C(=O)[C@H](OC(=O)C3CC3)C3=C(C)[C@@H](OC(=O)[C@H](O)[C@@H](NC(=O)OC(C)(C)C)c4cccs4)C[C@@](O)([C@@H](OC(=O)c4ccccc4)C12)C3(C)C` (stereo partly shown) [Compound 0854] it is less than 1 nM. Next, `C/C=C/C(=O)O[C@H]1C(=O)[C@@]2(C)C([C@H](OC(=O)c3ccccc3)[C@]3(O)C[C@H](OC(=O)[C@H](O)[C@@H](NC(=O)OC(C)(C)C)c4ccoc4)C(C)=C1C3(C)C)[C@]1(OC(C)=O)CO[C@@H]1C[C@@H]2O` (stereo partly shown) [Compound 2380]: less than 1 nM; `CCCC(=O)O[C@H]1C(=O)[C@@]2(C)C([C@H](OC(=O)c3ccccc3)[C@]3(O)C[C@H](OC(=O)[C@H](O)[C@@H](NC(=O)OCC(C)C)c4ccco4)C(C)=C1C3(C)C)[C@]1(OC(C)=O)CO[C@@H]1C[C@@H]2O` (stereo partly shown) [Compound 3957]: less than 10 nM; `CC(=O)O[C@@]12CO[C@@H]1C[C@H](O)[C@@]1(C)C(=O)[C@H](OC(=O)C3CC3)C3=C(C)[C@@H](OC(=O)[C@H](O)[C@@H](NC(=O)OCC(C)C)c4ccco4)C[C@@](O)([C@@H](OC(=O)c4ccccc4)C12)C3(C)C` (stereo partly shown) [Compound 3102]: less than 1 nM. In the case of `CCC(=O)O[C@H]1C(=O)[C@@]2(C)C([C@H](OC(=O)c3ccccc3)[C@]3(O)C[C@H](OC(=O)[C@H](O)[C@@H](NC(=O)OC(C)(C)C)c4ccncc4)C(C)=C1C3(C)C)[C@]1(OC(C)=O)CO[C@@H]1C[C@@H]2O` (stereo partly shown) [Compound 0521], the IC50 is less than 1 nM. The figure for `CC(=O)OC12COC1CC(O)C1(C)C(=O)C(OC(=O)c3ccco3)C3=C(C)C(OC(=O)C(O)C(NC(=O)OC(C)(C)C)c4cccnc4)CC(O)(C(OC(=O)c4ccccc4)C21)C3(C)C` (stereo not shown) [Compound 2124] is less than 10 nM; for `CCCC(=O)O[C@H]1C(=O)[C@@]2(C)C([C@H](OC(=O)c3ccccc3)[C@]3(O)C[C@H](OC(=O)[C@H](O)[C@@H](NC(=O)OC(C)C)c4ccco4)C(C)=C1C3(C)C)[C@]1(OC(C)=O)CO[C@@H]1C[C@@H]2O` (stereo partly shown) [Compound 3417] it is less than 1 nM; for `CCC(=O)O[C@H]1C(=O)[C@@]2(C)C([C@H](OC(=O)c3ccccc3)[C@]3(O)C[C@H](OC(=O)[C@H](O)[C@@H](NC(=O)OCC(C)C)c4ccsc4)C(C)=C1C3(C)C)[C@]1(OC(C)=O)CO[C@@H]1C[C@@H]2O` (stereo partly shown) [Compound 4711] it is less than 10 nM. Next, `CCCC(=O)O[C@H]1C(=O)[C@@]2(C)C([C@H](OC(=O)c3ccccc3)[C@]3(O)C[C@H](OC(=O)[C@H](O)[C@@H](NC(=O)c4cccs4)c4ccco4)C(C)=C1C3(C)C)[C@]1(OC(C)=O)CO[C@@H]1C[C@@H]2O` (stereo partly shown) [Compound 3656]: less than 1 nM; `CC(=O)O[C@@]12CO[C@@H]1C[C@H](O)[C@@]1(C)C(=O)[C@H](OC(=O)C3CC3)C3=C(C)[C@@H](OC(=O)[C@H](O)[C@@H](NC(=O)OC(C)C)c4cccs4)C[C@@](O)([C@@H](OC(=O)c4ccccc4)C12)C3(C)C` (stereo partly shown) [Compound 3071]: less than 1 nM. The figure for `CC(=O)O[C@@]12CO[C@@H]1C[C@H](O)[C@@]1(C)C(=O)[C@H](OC(=O)C3CC3)C3=C(C)[C@@H](OC(=O)[C@H](O)[C@@H](NC(=O)OC(C)C)c4ccco4)C[C@@](O)([C@@H](OC(=O)c4ccccc4)C12)C3(C)C` (stereo partly shown) [Compound 3853] is less than 1 nM; for `CC(=O)O[C@@]12CO[C@@H]1C[C@H](O)[C@@]1(C)C(=O)[C@H](OC(=O)C=C(C)C)C3=C(C)[C@@H](OC(=O)[C@H](O)[C@@H](NC(=O)OC(C)(C)C)c4ccco4)C[C@@](O)([C@@H](OC(=O)c4ccccc4)C12)C3(C)C` (stereo partly shown) [Compound 2488] it is less than 1 nM. Turning to `CCC(=O)O[C@H]1C(=O)[C@@]2(C)C([C@H](OC(=O)c3ccccc3)[C@]3(O)C[C@H](OC(=O)[C@H](O)[C@@H](NC(=O)c4ccccc4)c4ccccc4)C(C)=C1C3(C)C)[C@]1(OC(C)=O)CO[C@@H]1C[C@@H]2O` (stereo partly shown) [Compound 0748], the IC50 was less than 10 nM.
